These results are taken from ChEMBL document CHEMBL3399965, “Application of cultured human mast cells (CHMC) for the design and structure-activity relationship of IgE-mediated mast cell activation inhibitors” (Bioorg Med Chem Lett, 2015).

Assay [1] addresses T1, Tyrosine-protein kinase SYK (Homo sapiens, UniProt P43405). The experiment in a line: Inhibition of SYK in human mast cell cultures assessed as reduction in ionomycin-induced calcium mobilization mediated degranulation by tryptase release assay.
Assay [2] deals with T1, Tyrosine-protein kinase SYK. In words: Inhibition of SYK in human mast cell cultures assessed as reduction in IgE-induced FCepsilonR1 mediated degranulation by tryptase release assay.

Each structure is given as a SMILES string. Activity calls are given as the source filed them. The rule behind the calls is not given here.

Regarding `OCCOc1cccc(Nc2ncc(F)c(Nc3cccc(OCCO)c3)n2)c1`, in assay [1], the inhibition entry was “inactive”. The EC50 in assay [2] came out at 0.93 µM.

Regarding `NC(=O)COc1ccc(Nc2ncc(F)c(Nc3ccc(OCC(N)=O)cc3)n2)cc1`, the inhibition result in assay [1] and in assay [2] was “inactive” each time.

`Oc1cccc(Nc2ncc(C(F)(F)F)c(Nc3cccc(O)c3)n2)c1`: in assay [1], the inhibition entry is “inactive”. In addition, the EC50 in assay [2] came out at 0.27 µM.

With `CNC(=O)CNc1cccc(Nc2ncc(F)c(Nc3cccc(O)c3)n2)c1`, in assay [1], the inhibition result is “inactive”.

For the compound `N#Cc1cccc(Nc2ncc(F)c(Nc3cccc(C#N)c3)n2)c1`, the inhibition entry in assay [1] is “inactive”. Besides, the EC50 in assay [2] came out at 0.95 µM.

Consider `COc1cccc(Nc2ncc(F)c(Nc3cccc(OC)c3)n2)c1`, for which the inhibition entry in assay [1] was “inactive”. Also, the half-maximal effective concentration (EC50) in assay [2] was determined as 1.73 µM.

With `COC(=O)COc1ccc(Nc2ncc(F)c(Nc3ccc(OCC(N)=O)cc3)n2)cc1`, the values for the EC50 in assay [1] and in assay [2] were 2.48 µM and 0.43 µM, respectively.

Regarding `CCOc1ccc(Nc2cc(Cl)nc(Nc3ccc(OCC)cc3)n2)cc1`, the inhibition result in assay [1] and in assay [2] was “inactive” each time.

`NC(=O)COc1ccc(Nc2ncc(F)c(Nc3cccc(O)c3)n2)cc1`: the EC50 amounted to 10 µM in assay [1] and 0.53 µM in assay [2].

In the case of `Cn1nnnc1COc1ccc(Nc2ncc(F)c(Nc3ccc(OCc4nnnn4C)cc3)n2)cc1`, the inhibition entry in assay [1] was “inactive”. The EC50 in assay [2] came out at 0.76 µM.

On to `CC(C)Oc1ccc(Nc2ncc(F)c(Nc3ccc(OC(C)C)cc3)n2)cc1`, for which the inhibition entry in assay [1] was “inactive”. For the same compound, in assay [2], the EC50 was found to be 2.2 µM.

On to `Fc1cnc(Nc2cccc(Cl)c2)nc1Nc1cccc(Cl)c1`, for which the inhibition entry in assay [1] is “inactive”. Also, the EC50 in assay [2] is 5.81 µM.

In the case of `CNC(=O)COc1cccc(Nc2ncc(F)c(Nc3ccc(N4CCOCC4)cc3)n2)c1`, the inhibition entry in assay [1] was “inactive”. Moreover, in assay [2], the EC50 is 1.29 µM.

Consider `CCOc1ccc(Nc2ncc(C)c(Nc3ccc(OCC)cc3)n2)cc1`, for which the inhibition entry in assay [1] and in assay [2] was “inactive” in each case.

`NC(=O)COc1ccc(Nc2nc(Nc3cccc(O)c3)ncc2F)cc1`: the EC50 came out at 10 µM in assay [1] and 1.55 µM in assay [2].

As to `COCCOc1cccc(Nc2ncc(F)c(Nc3cccc(OCCOC)c3)n2)c1`, in assay [1], the inhibition result was “inactive”. Also, in assay [2], the EC50 amounted to 4.15 µM.

On to `Nc1ccc(Nc2ncc(F)c(Nc3ccc(N)cc3)n2)cc1`, for which, in assay [1], the inhibition entry was “inactive”. Further, in assay [2], the EC50 amounted to 4.25 µM.

`CCOc1cccc(Nc2ncc(F)c(Nc3cccc(OCC)c3)n2)c1`: in assay [1], the inhibition entry is “inactive”. For the same compound, the EC50 in assay [2] was 3.1 µM.

As to `Cc1cnc(Nc2cccc(O)c2)nc1Nc1cccc(O)c1`, in assay [1], the inhibition entry was “inactive”. For the same compound, the EC50 in assay [2] amounted to 0.9 µM.

In the case of `N#CCOc1ccc(Nc2ncc(F)c(Nc3ccc(OCC#N)cc3)n2)cc1`, the inhibition result in assay [1] is “inactive”. For the same compound, the EC50 in assay [2] was determined as 0.37 µM.

Turning to `Oc1ccc(Nc2ncc(F)c(Nc3ccc(O)cc3)n2)cc1`, the inhibition result in assay [1] is “inactive”. In assay [2], the EC50 worked out at 3.4 µM.

Consider `N#CCOc1ccc(Nc2ncc(F)c(Nc3cccc(O)c3)n2)cc1`, for which the half-maximal effective concentration (EC50) in assay [1] amounted to 10 µM.

For the compound `CNC(=O)COc1cccc(Nc2ncc(F)c(Nc3ccc(OC(F)(F)F)cc3)n2)c1`, in assay [1], the inhibition result is “inactive”. Further, the EC50 in assay [2] stood at 0.4 µM.

`Fc1cnc(Nc2ccc(N3CCOCC3)cc2)nc1Nc1ccc(N2CCOCC2)cc1`: in assay [1], the inhibition result is “inactive”. Further, in assay [2], the EC50 turned out to be 4.14 µM.

Regarding `COC(=O)COc1ccc(Nc2ncc(F)c(Nc3ccc(OCC(=O)OC)cc3)n2)cc1`, the EC50 in assay [1] turned out to be 1.7 µM; in assay [2], 0.38 µM.

In the case of `OCc1cccc(Nc2ncc(F)c(Nc3cccc(CO)c3)n2)c1`, the inhibition result in assay [1] is “inactive”. Besides, the concentration for a half-maximal effect (EC50) in assay [2] is 2.8 µM.

As to `Oc1cccc(Nc2ccnc(Nc3cccc(O)c3)n2)c1`, the inhibition result in assay [1] is “inactive”. In addition, the EC50 in assay [2] was 0.5 µM.

Turning to `COC(=O)COc1ccc(Nc2nc(Nc3ccc(OCC(N)=O)cc3)ncc2F)cc1`, the figures for the EC50 in assay [1] and in assay [2] were 10 µM and 0.94 µM, respectively.

Consider `Oc1cccc(Nc2ncc(-c3ccccc3)c(Nc3cccc(O)c3)n2)c1`, for which the inhibition result in assay [1] was “inactive”. Besides, the EC50 in assay [2] came out at 2.9 µM.

As to `CCOc1ccc(Nc2nc(Nc3cccc(OCC(=O)NC)c3)ncc2F)cc1`, the inhibition result in assay [1] was “inactive”. Also, the EC50 in assay [2] came to 1.1 µM.

With `COc1ccc(Nc2ncc(F)c(Nc3ccc(OC)cc3)n2)cc1`, the inhibition entry in assay [1] is “inactive”. Moreover, the EC50 in assay [2] was 1.43 µM.

In the case of `CNC(=O)COc1cccc(Nc2ncc(F)c(Nc3ccc(C(F)(F)F)cc3)n2)c1`, the inhibition result in assay [1] was “inactive”. Besides, the EC50 in assay [2] was 0.21 µM.

With `Oc1cccc(Nc2ncc(F)c(Nc3cccc(O)c3)n2)c1`, in assay [1], the inhibition result was “inactive”.

Turning to `CC(C)(CO)c1ccc(Nc2nc(Nc3cccc(OCCO)c3)ncc2F)cc1`, in assay [1], the inhibition entry is “inactive”. The EC50 in assay [2] turned out to be 0.28 µM.

On to `Fc1cnc(Nc2cccc(OC(F)(F)F)c2)nc1Nc1cccc(OC(F)(F)F)c1`, for which, in assay [1], the inhibition result is “inactive”. Also, the EC50 in assay [2] is 5.08 µM.

In the case of `OCCOc1cccc(Nc2nc(Nc3cccc(O)c3)ncc2F)c1`, the inhibition result in assay [1] is “inactive”. Further, in assay [2], the EC50 is 0.67 µM.

For the compound `Fc1cnc(Nc2ccc(OCc3nnn[nH]3)cc2)nc1Nc1ccc(OCc2nnn[nH]2)cc1`, the inhibition result in assay [1] and in assay [2] was “inactive” in each case.

On to `CCOC(=O)CNc1cccc(Nc2ncc(F)c(Nc3cccc(O)c3)n2)c1`, for which, in assay [1], the inhibition result was “inactive”. In addition, the EC50 in assay [2] stood at 0.33 µM.

`CCOc1ccc(Nc2ccnc(Nc3ccc(OCC)cc3)n2)cc1`: the inhibition entry in assay [1] is “inactive”. In assay [2], the EC50 amounted to 3.38 µM.

`Fc1cnc(Nc2ccc(C(F)(F)F)cc2)nc1Nc1ccc(C(F)(F)F)cc1`: the inhibition entry in assay [1] and in assay [2] was “inactive” throughout.

Regarding `N#Cc1ccc(Nc2ncc(F)c(Nc3ccc(C#N)cc3)n2)cc1`, the inhibition result in assay [1] was “inactive”. In addition, the EC50 in assay [2] came to 9.83 µM.

For `Oc1cccc(Nc2cc(-c3ccccc3)nc(Nc3cccc(O)c3)n2)c1`, in assay [1], the inhibition result is “inactive”. The EC50 in assay [2] came to 5.8 µM.

Turning to `CNC(=O)COc1cccc(Nc2ncc(F)c(Nc3ccc(C(C)(C)C)cc3)n2)c1`, the EC50 came out at 10 µM in assay [1] and 0.43 µM in assay [2].

For `O=C(O)COc1ccc(Nc2ncc(F)c(Nc3ccc(OCC(=O)O)cc3)n2)cc1`, the inhibition entry in assay [1] and in assay [2] was “inactive” throughout.

`N#Cc1cnc(Nc2cccc(O)c2)nc1Nc1cccc(O)c1`: the inhibition result in assay [1] is “inactive”. Besides, the EC50 in assay [2] worked out at 0.44 µM.

For the compound `CCOc1ccc(Nc2ncc(F)c(Nc3ccc(OCC)cc3)n2)cc1`, the inhibition result in assay [1] was “inactive”.

For the compound `Oc1cccc(Nc2ncc(Br)c(Nc3cccc(O)c3)n2)c1`, the inhibition entry in assay [1] was “inactive”. Moreover, in assay [2], the EC50 is 0.23 µM.
